Assay results published in ChEMBL document CHEMBL4184216, “Diversity oriented synthesis of chromene-xanthene hybrids as anti-breast cancer agents” (Bioorg Med Chem Lett, 2018).
Counter-ions that a name gives are not always drawn. Calls of active or inactive are those of the source. The calls are words filed in the database; no cut-off is given here.

Legend:
MCF7 = experiment: Cytotoxicity against human MCF7 cells assessed as reduction in cell viability incubated for 24 hrs by MTT assay; assay type: functional, cell-based; details: MCF7, 24 h
MDA-MB-231 [1] = experiment: Cytotoxicity against human MDA-MB-231 cells assessed as reduction in cell viability incubated for 24 hrs by MTT assay; assay type: functional, cell-based; details: MDA-MB-231, 24 h
HEK293 = experiment: Cytotoxicity against HEK293 cells assessed as reduction in cell viability incubated for 24 hrs by MTT assay; assay type: ADME, cell-based; details: Homo sapiens, HEK293, 24 h
MDA-MB-231 [2] = experiment: Cell cycle arrest in human MDA-MB-231 cells assessed as increase in accumulation at subG1 phase at 0.125 uM incubated for 24 hrs by propidium iodide staining based flow cytometry; assay type: functional
MDA-MB-231 [3] = experiment: Cell cycle arrest in human MDA-MB-231 cells assessed as increase in accumulation at G1 phase at 0.125 to 0.25 uM incubated for 24 hrs by propidium iodide staining based flow cytometry; assay type: functional
MDA-MB-231 [4] = experiment: Cell cycle arrest in human MDA-MB-231 cells assessed as reduction in accumulation at G2/M phase at 0.125 to 0.25 uM incubated for 24 hrs by propidium iodide staining based flow cytometry; assay type: functional
MDA-MB-231 [5] = experiment: Induction of apoptosis in human MDA-MB-231 cells at 0.125 to 0.25 uM incubated for 24 hrs by Annexin V-FITC/propidium iodide staining based flow cytometry; assay type: functional, cell-based

Structure (SMILES)	IC50 (MCF7) [µM]	IC50 (MDA-MB-231 [1]) [µM]	IC50 (HEK293) [µM]	Activity (MDA-MB-231 [2])	Activity (MDA-MB-231 [3])	Activity (MDA-MB-231 [4])	Activity (MDA-MB-231 [5])
COc1cccc(C2C3=C(Oc4ccc(C[C@@H](CO)NC(=O)OC(C)(C)C)cc42)c2ccccc2OC3(C)C)c1 (stereo not given in full)	29.9	2.9	> 25				
COc1cccc2c1C(c1cccs1)C1=C(S2)c2ccccc2OC1(C)C (stereo not given)	26.3	29	> 25				
CC/C(=C(\c1ccccc1)c1ccc(OCCN(C)C)cc1)c1ccccc1 [TAMOXIFEN CITRATE]			30				
COc1cccc(C2C3=C(Oc4ccc(C[C@H](N)CO)cc42)c2ccccc2OC3(C)C)c1 (stereo not given in full)	2.1	3.5	> 25				
COc1ccc2c(c1)C(c1ccc(SC)cc1)C1=C(O2)c2ccccc2OC1(C)C (stereo not given)	20	17.1	> 25				
COc1ccc(C2C3=C(Sc4ccc(Cl)cc42)c2ccccc2OC3(C)C)cc1 (stereo not given)	39	19.1	> 25				
CSc1ccc(C2C3=C(Oc4ccc(C[C@@H](CO)NC(=O)OC(C)(C)C)cc42)c2ccccc2OC3(C)C)cc1 (stereo not given in full)	32	21.1	> 25				
CC1(C)Oc2ccccc2C2=C1C(c1cccs1)c1cc(Cl)ccc1S2 (stereo not given)	22.3	29	> 25				
COc1ccccc1C1C2=C(Oc3ccc(C[C@H]4COC(C)(C)N4C(=O)OC(C)(C)C)cc31)c1ccccc1OC2(C)C (stereo not given in full)	22.3	29	> 25				
COc1ccccc1C1C2=C(Oc3ccc(C[C@H](N)CO)cc31)c1ccccc1OC2(C)C (stereo not given in full)	2.6	2.5	> 25	Active	Active	Active	Dose-dependent effect
COc1ccccc1C1C2=C(Sc3ccc(Cl)cc31)c1ccccc1OC2(C)C (stereo not given)	39.5	48.6	> 25				
